Literature values, collected in patent US6440395B1, “Antiplaque mouth rinse” (priority 1992, dated 2002).

| solubility in water (in water at 25° C.) | Compound | solubility in water and alcohol (water and alcohol, stated in words) |
| --- | --- | --- |
| – | CCCCCCCCCCCCCCCC[n+]1ccccc1 [CPC, cetyl pyridinium chloride] | highly soluble |
| less than 1 % by weight | Oc1cc(Cl)ccc1Oc1ccc(Cl)cc1Cl [Triclosan, 2,4,4′-trichloro-2′-hydroxydiphenyl ether] | – |
